# Reference: patent US20260015372A1, “Organophosphorous Compounds and Uses Thereof” (priority 2022, published 2026)
# “Also recorded” adds a separate entry of the source. Where two headings read alike, the source gives them in different places.
# How the values were obtained:
# ACHE [1] = molecular target: T1, ACHE (Homo sapiens (Human), UniProt P22303); experiment: ACHE inhibition, colorimetric with substrate and Ellman's reagent; format: biochemical; conditions: for Inhibition of ACHE: [ATC] = 0.1 mM
# T1 sequence (P22303 32-614): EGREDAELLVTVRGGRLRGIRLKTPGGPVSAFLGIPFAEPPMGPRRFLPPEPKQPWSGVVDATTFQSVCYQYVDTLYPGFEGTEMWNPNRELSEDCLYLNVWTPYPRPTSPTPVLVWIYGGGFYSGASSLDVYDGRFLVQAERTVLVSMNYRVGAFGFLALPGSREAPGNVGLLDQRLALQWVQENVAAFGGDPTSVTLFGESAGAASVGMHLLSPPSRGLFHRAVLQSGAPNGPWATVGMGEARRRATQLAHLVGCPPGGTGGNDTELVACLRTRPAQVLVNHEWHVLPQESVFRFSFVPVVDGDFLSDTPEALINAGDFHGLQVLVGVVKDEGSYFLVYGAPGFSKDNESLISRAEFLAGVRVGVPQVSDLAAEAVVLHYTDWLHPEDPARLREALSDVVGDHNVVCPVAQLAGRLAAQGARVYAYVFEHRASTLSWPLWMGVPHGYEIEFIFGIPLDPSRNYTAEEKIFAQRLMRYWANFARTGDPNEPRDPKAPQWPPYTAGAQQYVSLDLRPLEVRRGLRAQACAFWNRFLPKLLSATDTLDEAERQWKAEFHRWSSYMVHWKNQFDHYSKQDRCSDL
# BCHE [2] = molecular target: T2, BCHE (Homo sapiens (Human), UniProt P06276); experiment: biochemical; format: biochemical; conditions: for Mode of Inhibition: Irreversible = enzyme covalently modified
# T2 sequence (P06276 29-602, species assumed): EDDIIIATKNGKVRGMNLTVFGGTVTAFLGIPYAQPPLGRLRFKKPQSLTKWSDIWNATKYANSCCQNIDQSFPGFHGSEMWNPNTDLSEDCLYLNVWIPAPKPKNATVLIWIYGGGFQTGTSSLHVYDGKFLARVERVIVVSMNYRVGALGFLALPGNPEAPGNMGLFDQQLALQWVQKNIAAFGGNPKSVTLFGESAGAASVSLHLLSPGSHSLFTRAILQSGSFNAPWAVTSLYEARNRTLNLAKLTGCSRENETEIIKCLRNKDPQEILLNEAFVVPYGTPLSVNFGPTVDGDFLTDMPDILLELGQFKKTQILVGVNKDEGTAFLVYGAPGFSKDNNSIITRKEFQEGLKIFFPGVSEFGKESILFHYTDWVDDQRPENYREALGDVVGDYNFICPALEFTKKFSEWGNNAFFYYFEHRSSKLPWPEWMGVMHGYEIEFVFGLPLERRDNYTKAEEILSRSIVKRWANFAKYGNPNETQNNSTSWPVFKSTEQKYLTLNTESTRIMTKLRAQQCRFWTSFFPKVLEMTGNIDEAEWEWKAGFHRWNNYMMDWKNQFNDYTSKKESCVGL
# Description: The compounds referred to herein have BCHE inhibitory activity. To determine the inhibitory values, enzymes were incubated for 2 hours in the presence of varying concentrations of compound prior to activity measurements. Activity is then measured colorimetrically upon addition of substrate and Ellman's reagent.
# Aβ (1-40) peptide = Aβ (1-40) peptide (Homo sapiens, UniProt P05067); experiment: Thioflavin T fluorescence assay of β-amyloid peptide aggregation; format: biochemical; conditions: 30 μM peptide, 25° C., 2 hours, ThT fluorescence
# Description: Neurotoxic plaques, i.e., aggregates of β-amyloid peptide, bind thioflavin T (ThT) and show significant fluorescence.
# Aβ (1-40) peptide was solubilized in hexafluoroisopropanol (HFIP). A solution of 25 μM ThT was prepared in 0.025 M phosphate buffer, pH 6.0. Peptide was dissolved in 0.01 M PBS; 0.1M NaCl, pH7.4 to a final concentration of 30 μM. Inhibitors were prepared in methanol. The final concentration of HFIP and methanol were 2% and 10% (v/v) respectively. The control sample consisted peptide incubated in PBS/2% HFI/10% methanol without inhibitor. All samples were mixed and incubated at 25° C. for 2 hours. Fluorescence was measured by mixing 470 μL of ThT solution with 30 μL of the protein solution. Excitation and emission wavelengths were 440 nm with 5 nm slit width and 485 nm with 10 nm slit width, respectively. Biological activity was calculated as percent of inhibitory activity of inhibitor at varying concentration was calculated using the following equation: Vi=100−[(Fi−Fb)/F0]×100. The higher the Vi, the less aggregation of amyloid peptide.
# [3] = molecular target: serum butyrylcholinesterase (Mus musculus (Mouse), UniProt Q03311); experiment: In vivo serum butyrylcholinesterase activity; design: species or system transgenic Alzheimer's mice; conditions: 10 mg and 20 mg doses over 11 months and 13 months; listed as DB2CIPP
# serum butyrylcholinesterase, sequence (Q03311 30-603 limits assumed): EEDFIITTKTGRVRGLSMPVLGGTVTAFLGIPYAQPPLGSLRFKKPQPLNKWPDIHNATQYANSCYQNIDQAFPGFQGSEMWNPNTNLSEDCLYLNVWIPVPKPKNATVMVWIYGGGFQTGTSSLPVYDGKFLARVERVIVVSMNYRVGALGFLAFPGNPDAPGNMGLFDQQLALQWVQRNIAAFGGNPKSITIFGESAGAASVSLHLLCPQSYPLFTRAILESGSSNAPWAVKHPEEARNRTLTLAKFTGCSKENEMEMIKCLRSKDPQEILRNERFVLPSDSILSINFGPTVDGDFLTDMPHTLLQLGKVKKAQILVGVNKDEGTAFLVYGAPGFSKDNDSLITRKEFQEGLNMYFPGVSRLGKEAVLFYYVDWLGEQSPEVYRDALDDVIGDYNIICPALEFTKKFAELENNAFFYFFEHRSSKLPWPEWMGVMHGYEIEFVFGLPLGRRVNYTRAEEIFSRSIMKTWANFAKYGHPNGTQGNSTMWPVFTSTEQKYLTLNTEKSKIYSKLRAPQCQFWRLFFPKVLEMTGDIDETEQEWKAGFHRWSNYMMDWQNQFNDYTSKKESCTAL
# Description: (§1) DB2CIPP Testing Results Inhibition of BChE in brain and serum. Di-n-butyl 2 chlorophenyl phosphate (DB2CIPP) inhibits BChE in brain and serum without inhibiting AChE in serum (see FIG. 5, FIG. 7, and FIG. 8).
# [4] = molecular target: hippocampal butyrylcholinesterase (Mus musculus (Mouse), UniProt Q03311); experiment: In vivo hippocampal butyrylcholinesterase activity; design: species or system transgenic Alzheimer's mice; conditions: 10 mg and 20 mg doses over 11 months; listed as DB2CIPP
# hippocampal butyrylcholinesterase, sequence (Q03311 30-603 limits assumed): as above
# Description: as §1
# [5] = molecular target: serum acetylcholinesterase (Mus musculus (Mouse), UniProt P21836); experiment: In vivo serum acetylcholinesterase activity; design: species or system transgenic Alzheimer's mice; conditions: 10 mg and 20 mg doses over 11 months and 13 months; listed as DB2CIPP
# serum acetylcholinesterase, sequence (P21836 32-614 limits assumed): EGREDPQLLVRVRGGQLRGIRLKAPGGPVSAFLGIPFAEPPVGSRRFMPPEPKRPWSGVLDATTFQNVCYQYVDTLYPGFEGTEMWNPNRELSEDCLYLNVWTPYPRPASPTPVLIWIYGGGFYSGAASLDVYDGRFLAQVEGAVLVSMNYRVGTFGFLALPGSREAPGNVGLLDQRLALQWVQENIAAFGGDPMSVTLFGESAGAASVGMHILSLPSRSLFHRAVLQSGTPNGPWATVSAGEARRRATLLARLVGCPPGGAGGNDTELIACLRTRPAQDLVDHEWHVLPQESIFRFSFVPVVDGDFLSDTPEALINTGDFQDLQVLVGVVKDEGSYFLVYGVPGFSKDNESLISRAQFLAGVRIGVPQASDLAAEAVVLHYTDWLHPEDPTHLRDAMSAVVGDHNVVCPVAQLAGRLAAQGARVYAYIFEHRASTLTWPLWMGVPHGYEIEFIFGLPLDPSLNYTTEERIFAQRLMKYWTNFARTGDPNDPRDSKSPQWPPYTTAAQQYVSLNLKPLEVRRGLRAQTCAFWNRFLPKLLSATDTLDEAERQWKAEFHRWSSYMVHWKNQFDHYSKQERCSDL
# Description: as §1
# β-amyloid plaque = experiment: In vivo β-amyloid plaque formation, immunohistochemistry; design: species or system transgenic Alzheimer's mice
# Description: Images show immunohistochemistry of 13-month transgenic Alzheimer's disease mice brains at subiculum region of hippocampus, treated with DB2CIPP and DMSO control beginning at 9 months. […] Selective inhibition of butyrylcholinesterase in the brain is widely documented as a potential treatment for Alzheimer's disease and dementia, by improving cognition and modulating neuropathological markers of the disease. As an inhibitor of butyrylcholinesterase, DB2CIPP may also be used to inhibit or slow the progression of the Alzheimer's-like symptoms seen in long COVID.
# [6] = In vivo blood brain barrier crossing; conditions: other in vivo tests
# BCHE [7] = molecular target: T2, BCHE; format: biochemical; conditions: 20 μM inhibitor, 2 minutes; Activity of Inhibitor incubated enzyme/Activity of unincubated enzyme
# ACHE [8] = molecular target: T1, ACHE; experiment: Relative Activity of ACHE, 20 μM inhibitor for 2 minutes; format: biochemical; conditions: Activity of Inhibitor incubated enzyme/Activity of unincubated enzyme
# Description: In order to compare the relative inhibitory activity of the five compounds 27, 35, 89, 90 and 92 against BCHE and ACHE, a solution of each enzyme was incubated with 20 μM of the inhibitor for 2 minutes, and the enzyme activity determined. Table 5 lists the Relative Activity (=Activity of Inhibitor incubated enzyme/Activity of unincubated enzyme).
# [9] = enzyme incubated 2 hours with compound
# [10] = enzyme incubated 2 hours with compound, read-out: BCHE Ki ± SEM
compound,measurement,setting,value
"CCCCOP(=O)(OCC)Oc1ccccc1 (racemic) [Compound 99, (±)-n-Butyl ethyl phenyl phosphate]",Inhibition of ACHE,ACHE [1]; inhibitor 3 mM,^f<8% inhibition at [2] = 3 mM and [ATC] = 0.1 mM.
"CCCCOP(=O)(OCCCC)Oc1ccccc1Cl [Compound 9, Di-n-butyl 2-chlorophenyl phosphate]",IC50,BCHE [2],0.00069 µM
same,Selectivity toward BCHE over ACHE,BCHE [2]; ACHE IC50 vs BCHE IC50,"approximately 68,000 fold"
same,Mode of Inhibition,BCHE [2],Irreversible^g
same,IC50,BCHE [2]; [9],0.00069 µM
same,IC50,ACHE [1],47 µM
same,IC50,ACHE [1]; [9],47 µM
same,Inhibition of aggregation of β-amyloid peptides,Aβ (1-40) peptide,did not inhibit
same,Inhibition of serum butyrylcholinesterase activity,[3],significant inhibition
same,Inhibition of hippocampal butyrylcholinesterase activity,[4],significant inhibition
same,Serum acetylcholinesterase activity,[5],substantially not altered; also recorded: not significantly altered
same,Beta amyloid plaques immunopositive staining in the hippocampus,"β-amyloid plaque; 10 mg or 20 mg doses over 13 months, vs untreated mice",reduced
same,Inhibition of β-amyloid plaque formation,"β-amyloid plaque; 13-month mice, subiculum region of hippocampus, treated beginning at 9 months, vs DMSO control, listed as DB2CIPP",significant inhibition
same,Ability to cross the blood brain barrier (BBB),[6],cross the blood brain barrier
"CCCCOP(=O)(OCCCC)Oc1cc(C)cc(C)c1 [Compound 27, Di-n-butyl 3,5-dimethylphenyl phosphate]",Ki,BCHE [2],1 µM
same,Mode of Inhibition,BCHE [2],Reversible
same,Relative Activity of BCHE,BCHE [7],0.45
same,Relative Activity of ACHE,ACHE [8],0.93
"CCCCOP(=O)(OCCCC)Oc1ccc2ccccc2c1 [Compound 35, Di-n-butyl 2-napthyl phosphate]",Ki,BCHE [2],1.9 µM
same,Mode of Inhibition,BCHE [2],Reversible
same,Relative Activity of BCHE,BCHE [7],0.10
same,Relative Activity of ACHE,ACHE [8],0.84
"CCOP(=O)(OCC)OCCCOP(=O)(OCC)OCC [Compound 53, Tetraethyl propane-1,3-diyl bisphosphate]",IC50,BCHE [2]; [9],8.26 µM
"CCOP(=O)(OCC)OCCCCOP(=O)(OCC)OCC [Compound 54, Tetraethyl butane-1,4-diyl bisphosphate]",IC50,BCHE [2]; [9],8.2 µM
"CCOP(=O)(OCC)OCCCCCOP(=O)(OCC)OCC [Compound 55, Tetraethyl pentane-1,5-diyl bisphosphate]",IC50,BCHE [2]; [9],35.4 µM
"CCOP(=O)(OCC)OCCCCCCOP(=O)(OCC)OCC [Compound 56, Tetraethyl hexane-1,6-diyl bisphosphate]",Mode of Inhibition,BCHE [2],Reversible
same,Ki,BCHE [2]; [10],228 µM
same,Inhibition of aggregation of β-amyloid peptides,Aβ (1-40) peptide,significantly inhibited
"CCOP(=O)(OCC)OCCCCCCCOP(=O)(OCC)OCC [Compound 57, Tetraethyl heptane-1,7-diyl bisphosphate]",IC50,BCHE [2]; [9],40.1 µM
"CCOP(=O)(OCC)OCCOCCOP(=O)(OCC)OCC [Compound 58, Tetraethyl 3-oxapentane-1,5-diyl bisphosphate]",IC50,BCHE [2]; [9],11.1 µM
"CCCCOP(=O)(OCCCC)OCCCOP(=O)(OCCCC)OCCCC [Compound 59, Tetrabutyl propane-1,3-diyl bisphosphate]",IC50,BCHE [2]; [9],0.79 µM
"CCCCOP(=O)(OCCCC)OCCCCOP(=O)(OCCCC)OCCCC [Compound 60, Tetrabutyl butane-1,4-diyl bisphosphate]",IC50,BCHE [2]; [9],88.1 µM
"CCCCOP(=O)(OCCCC)OCCCCCOP(=O)(OCCCC)OCCCC [Compound 61, Tetrabutyl pentane-1,5-diyl bisphosphate]",IC50,BCHE [2]; [9],2.72 µM
"CCCCOP(=O)(OCCCC)OCCCCCCOP(=O)(OCCCC)OCCCC [Compound 62, Tetrabutyl hexane-1,6-diyl bisphosphate]",Mode of Inhibition,BCHE [2],Reversible
same,Ki,BCHE [2]; [10],4 µM
same,Inhibition of aggregation of β-amyloid peptides,Aβ (1-40) peptide,significantly inhibited
"CCCCOP(=O)(OCCCC)OCCCCCCCOP(=O)(OCCCC)OCCCC [Compound 63, Tetrabutyl heptane-1,7-diyl bisphosphate]",IC50,BCHE [2]; [9],3.95 µM
"CCCCOP(=O)(OCCCC)OCCCCCCCCOP(=O)(OCCCC)OCCCC [Compound 64, Tetrabutyl octane-1,8-diyl bisphosphate]",IC50,BCHE [2]; [9],2.39 µM
"CCCCOP(=O)(OCCCC)OCCOCCOP(=O)(OCCCC)OCCCC [Compound 65, Tetrabutyl 3-oxapentane-1,5-diyl bisphosphate]",IC50,BCHE [2]; [9],31.2 µM
"CCCCOP(=O)(OCCC=CCCOP(=O)(OCCCC)OCCCC)OCCCC [Compound 66, Tetrabutyl 3-hexene-1,6-diyl bisphosphate]",IC50,BCHE [2]; [9],1.2 µM
"O=P(OCCCCCCOP(=O)(Oc1ccccc1)Oc1ccccc1)(Oc1ccccc1)Oc1ccccc1 [Compound 67, Tetraphenyl hexane-1,6-diyl bisphosphate]",Mode of Inhibition,BCHE [2],Reversible
same,Inhibition of aggregation of β-amyloid peptides,Aβ (1-40) peptide,significantly inhibited
"CCCCOP(=O)(Cc1cccc2ccccc12)OCCCC [Compound 89, Di-n-butyl 1-naphthylmethylphosphonate]",Mode of Inhibition,BCHE [2],Irreversible^g
same,Relative Activity of BCHE,BCHE [7],0.47
same,Relative Activity of ACHE,ACHE [8],0.96
"CCCCOP(=O)(Cc1ccc2ccccc2c1)OCCCC [Compound 90, Di-n-butyl 2-naphthylmethylphosphonate]",Mode of Inhibition,BCHE [2],Irreversible^g
same,Relative Activity of BCHE,BCHE [7],0.45
same,Relative Activity of ACHE,ACHE [8],0.95
"CCCCOP(=O)(Cc1cc(C)cc(C)c1)OCCCC [Compound 92, Di-n-butyl 3,5-dimethylbenzylphosphonate]",Mode of Inhibition,BCHE [2],Irreversible^g
same,Relative Activity of BCHE,BCHE [7],0.64
same,Relative Activity of ACHE,ACHE [8],0.99
"COP(=O)(OC)Oc1ccccc1 [Compound 93, Dimethyl phenyl phosphate]",Ki,BCHE [2],1700 µM
same,Ki,ACHE [1],6500 µM
"CCOP(=O)(OCC)Oc1ccccc1 [Compound 94, Diethyl phenyl phosphate]",Ki,BCHE [2],55 µM
same,Ki,ACHE [1],3100 µM
"CCCOP(=O)(OCCC)Oc1ccccc1 [Compound 95, Di-n-propyl phenyl phosphate]",Inhibition of ACHE,ACHE [1]; inhibitor 5 mM,^b<20% Inhibition at [lc] = 5 mM and [ATC] = 0.1 mM.
"CCCCOP(=O)(OCCCC)Oc1ccccc1 [Compound 96, Di-n-butyl phenyl phosphate]",Inhibition of ACHE,ACHE [1]; inhibitor 1 mM,^cNo inhibition at [1d] = 1 mM and [ATC] = 0.1 mM.
"CCCCCOP(=O)(OCCCCC)Oc1ccccc1 [Compound 97, Di-n-pentyl phenyl phosphate]",Ki,BCHE [2],6 µM
same,Mode of Inhibition,BCHE [2],^aPartial competitive.
same,Inhibition of ACHE,ACHE [1]; inhibitor 3 mM,^d<8% Inhibition at [le] = 3 mM and [ATC] = 0.1 mM.
"O=P(Oc1ccccc1)(OC1CCCCC1)OC1CCCCC1 [Compound 98, Di-cyclohexyl phenyl phosphate]",Ki,BCHE [2],7 µM
same,Mode of Inhibition,BCHE [2],^aPartial competitive.
same,Inhibition of ACHE,ACHE [1]; inhibitor 3 mM,^eNo inhibition at [1f] = 3 mM and [ATC] = 0.1 mM.
